In publication PMC12649549, “Sequence Permutation Generated Lysine and Tryptophan-Rich Antimicrobial Peptides with Enhanced Therapeutic Index” (Antibiotics, 2025):
Like-named read-outs stand apart in the source and are kept apart here.

How the values were obtained:
[1] = test system: Gram-positive bacteria; assay: Geometric mean MIC and therapeutic index, Gram-positive bacteria; assay type: cell-based; conditions: Gram-positive bacteria
Summary of the method: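 Read-out is the MIC by CLSI broth microdilution, summarised as a geometric mean across strains, with TI defined as HC10 on human red cells over that GM. Media were MH broth and LYM broth adjusted for salt, Mg2+ and pH; peptides ran 0.78–50 µg/mL.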

[2] = test system: A. baumannii 14B0097 (Acinetobacter sp., BCRC number 14B0097)
Summary of the method: (§1)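 Broth microdilution per CLSI in Müller-Hinton broth and modified LYM broth (pH 7.4; variants with 300–50 mM NaCl, 2.5–0.5 mM MgCl2, or pH 6.5–4.5). Inoculum 5 × 10^5 CFU/mL; peptides at final 50 to 0.78 µg/mL, twofold series. MIC reported; three independent repeats.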

[3] = test system: S. aureus ATCC 25923
Summary of the method: as §1

[4] = test system: S. aureus ATCC 6538
Summary of the method: as §1

[5] = test system: S. aureus ATCC 33592
Summary of the method: as §1

[6] = LYM broth, 0 mM NaCl, 16 h, 37 °C
[7] = LYM broth, 50 mM NaCl, 16 h, 37 °C
[8] = LYM broth, 100 mM NaCl, 16 h, 37 °C
[9] = LYM broth, 200 mM (NaCl), 16 h, 37 °C
[10] = LYM broth, 300 mM (NaCl), 16 h, 37 °C
[11] = MH broth, 5 × 10^5 CFU/mL, 16 h, 37 °C, repeated three times

For Ac-LKWLAKKKKWRKW-NH2 [Peptide W5K06], the “GM G+ (geometric mean of the MIC values)” value ([1]; MH broth, MIC >50 µg/mL counted as 100 µg/mL) was 75.8 µg/mL, the “Therapeutic Index (TI) G+” value ([1]; HC10/GM) was 1.4 and the MIC [2, 6] was 3.13 µg/mL. It also gave an MIC ([2]; LYM broth, 0.5 mM MgCl2) of 3.13 µg/mL, an MIC ([2]; LYM broth, 1.5 mM MgCl2) of 3.13 µg/mL and an MIC ([2]; LYM broth, 2.5 mM MgCl2) of 3.13 µg/mL. It also gave an MIC [2, 7] of 3.13 µg/mL, an MIC [2, 8] of 6.25 µg/mL and an MIC [2, 9] of 50 µg/mL. The MIC [2, 10] was greater than 50 µg/mL, the MIC ([2]; LYM broth, pH 4.5) was 3.13 µg/mL and the MIC ([2]; LYM broth, pH 5.5) was 3.13 µg/mL. The MIC ([2]; LYM broth, pH 6.5) was 1.56 µg/mL, the MIC [2, 11] was 50 µg/mL and the MIC [3, 6] was 6.25 µg/mL. The MIC ([3]; LYM broth, 0.5 mM MgCl2) was 6.25 µg/mL, the MIC ([3]; LYM broth, 1.5 mM MgCl2) was 6.25 µg/mL and the MIC ([3]; LYM broth, 2.5 mM MgCl2) was 6.25 µg/mL. For the same substance, the MIC [3, 7] was 12.5 µg/mL, the MIC [3, 8] was 25 µg/mL and the MIC [3, 9] was 50 µg/mL. It also gave an MIC [3, 10] greater than 50 µg/mL, an MIC ([3]; LYM broth, pH 4.5) of 6.25 µg/mL and an MIC ([3]; LYM broth, pH 5.5) of 6.25 µg/mL. It also gave an MIC ([3]; LYM broth, pH 6.5) of 3.13 µg/mL, an MIC [3, 11] of 50 µg/mL and an MIC [4, 6] of 6.25 µg/mL. The MIC ([4]; LYM broth, 0.5 mM MgCl2) was 3.13 µg/mL, the MIC ([4]; LYM broth, 1.5 mM MgCl2) was 3.13 µg/mL and the MIC ([4]; LYM broth, 2.5 mM MgCl2) was 6.25 µg/mL. The MIC [4, 7] was 6.25 µg/mL, the MIC [4, 8] was 25 µg/mL and the MIC [4, 9] was 50 µg/mL. For the same substance, the MIC [4, 10] was greater than 50 µg/mL, the MIC ([4]; LYM broth, pH 4.5) was 6.25 µg/mL and the MIC ([4]; LYM broth, pH 5.5) was 6.25 µg/mL. For the same substance, the MIC ([4]; LYM broth, pH 6.5) was 6.25 µg/mL, the MIC [4, 11] was 50 µg/mL and the MIC [5, 6] was 12.5 µg/mL. It also gave an MIC ([5]; LYM broth, 0.5 mM MgCl2) of 12.5 µg/mL, an MIC ([5]; LYM broth, 1.5 mM MgCl2) of 25 µg/mL and an MIC ([5]; LYM broth, 2.5 mM MgCl2) of 25 µg/mL. The MIC [5, 7] was 25 µg/mL, the MIC [5, 8] was 50 µg/mL and the MIC [5, 9] was greater than 50 µg/mL. It also gave an MIC [5, 10] greater than 50 µg/mL, an MIC ([5]; LYM broth, pH 4.5) of 12.5 µg/mL and an MIC ([5]; LYM broth, pH 5.5) of 12.5 µg/mL. It also gave an MIC ([5]; LYM broth, pH 6.5) of 6.25 µg/mL and an MIC [5, 11] greater than 50 µg/mL.
